Reference: patent US5962408A, “Disulphide-cyclo-[H-Cys-Glu-Gln-Tyr-Cys-OH], and its use in blood-clotting disorders” (Nycomed Imaging AS, priority 1994, dated 1999)
“Also recorded” adds a separate entry of the source. Like-named read-outs stand apart in the source and are kept apart here. Positions of bridges follow the written chain, without caps; N, C: chain ends. Residues, ends and D or L forms follow the SMILES beside them.

What was measured:
[1] = biological target: T1, factor VIIa/tissue factor (Homo sapiens, UniProt P13726); test: two-stage chromogenic assay of factor VIIa/tissue factor-catalysed factor X activation; assay type: biochemical
T1 construct: purchased American Diagnostica, Inc. (TF); Novo Nordisk A/S (FVIIa)
T1 sequence (P13726 33-295): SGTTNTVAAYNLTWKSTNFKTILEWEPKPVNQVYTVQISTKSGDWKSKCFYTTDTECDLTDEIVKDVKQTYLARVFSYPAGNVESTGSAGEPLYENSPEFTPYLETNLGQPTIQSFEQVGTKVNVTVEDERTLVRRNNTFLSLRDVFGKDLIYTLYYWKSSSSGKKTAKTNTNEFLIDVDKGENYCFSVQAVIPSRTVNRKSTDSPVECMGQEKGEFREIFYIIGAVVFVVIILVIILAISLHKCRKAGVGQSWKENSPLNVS
Procedure: This was determined using a two-stage chromogenic biochemical in vitro assay, essentially as described (A. Kumar et al., 1991, J. Biol. Chem., 266, 915). In short: peptides were pre-incubated with lipidated TF (5 pM; from American Diagnostica, Inc., Greenwich, Conn., USA) and calcium (5 mM) for 10 minutes prior to addition of FVIIa (5 pM; from Novo Nordisk A/S, Gentofte, Denmark) and FX (20 nM; from Enzyme Research Laboratory, South Bend, Ind., USA). Reactions were terminated by addition of EDTA (50 mM) and formation of FXa was monitored using the chromogenic FXa substrate S2765 (0.4 mM; from Chromogenix, Mondal, Sweden) and measuring the absorbance increase at 405 nm in a microtitre plate reader. The concentration for half-maximal inhibition (IC50) was determined from dose-inhibition curves.

[2] = solubility in physiological media; assay type: physicochemical
[3] = biological target: binding of Factor VII to tissue factor (Homo sapiens, UniProt P13726); details: reported in PCT/GB94/01315; cited from earlier work
Chain of binding of Factor VII to tissue factor (P13726 33-295): as above

[4] = test system: tissue factor-dependent plasma coagulation; test: one-stage in vitro tissue factor-dependent plasma coagulation assay; assay type: biochemical, human; details: end-capped peptide tested up to 1.5 mM
Procedure: A one-stage in vitro coagulation assay was used as follows: peptides dissolved in 3-[N-morpholino]propane-sulphonic acid buffer (100 mM, pH 7.4) and NaCl (100 mM) were premixed with diluted (1:50 in saline) lipidated TF (Thromborel S®, Behringwerke AG, Marburg, Germany) and CaCl2 (5 mM final concentration) and the solutions were kept at 37° C. for 2 minutes. The coagulation reaction was initiated by addition of a thawed aliquot of frozen platelet-free human plasma pool (37° C.). The clotting-time for four replicate incubations were simultaneously determined automatically in an electromagnetic coagulometer (Thrombotrack 4, Nycomed Pharma AS, Oslo, Norway). The mean value for the clotting times determined from the replicate samples were converted to arbitrary TF units by a log-log calibration curve generated with Thromborel.

[5] = test system: TF-dependent arterial thrombogenesis; test: human ex vivo model of TF-dependent arterial thrombogenesis; details: around 1 mM final peptide/plasma concentration
Procedure: Apart from the ability of the peptide disulphide-cyclo-[H-Cys-Glu-Gln-Tyr-Cys-OH] to inhibit the complex formation between FVIIa and TF in various biochemical assays, we have also found this peptide to be efficacious in a clinically relevant ex vivo model of TF/FVII-dependent arterial human thrombogenesis.
The efficacy of peptides was tested in a human ex vivo model of TF-dependent arterial thrombogenesis, essentially as described (K. S. Sakariassen et al., 1990, Arteriosclerosis, 10, 276; U. .O slashed.rvim et al., 1995, Arterioscl. Thromb. Vasc. Biol., in press). Human non-anticoagulated blood was drawn directly from an antecubital vein and mixed with peptide solution in a heparin-coated mixing device situated proximally to a perfusion chamber which contained a TF-coated coverslip (Thromborel S®). Blood flow was kept at 10 mL/min for 4 minutes, producing a shear rate of 650 s^-1, typical for small arteries.

[6] = mean±standard deviation, TF 5 pM, FVIIa 5 pM, FX 20 nM, read-out: IC50 (concentration for half-maximal inhibition of FXa formation)
[7] = summary values in the description, read-out: IC50 in the two-stage chromogenic assay of A. Kumar et al.

Row | IC50 [1, 6] [µM] | fold lower potency versus disulphide-cyclo-[H-Cys-Glu-Gln-Tyr-Cys-OH] ([1]; same assay) [fold] | IC50 [1, 7] [µM] | highest testable concentration due to solubility ([2]; coagulation assay buffer) | Molecule | solubility properties in physiological media [2] | inhibition of binding of Factor VII to tissue factor [3] | effect on clotting time [4] | effect on thrombus formation [5]
1 | 265 ± 174 | 26 | ~200 | ca. 1.5 mM | CC(=O)N[C@H]1CSSC[C@@H](C(N)=O)NC(=O)[C@H](Cc2ccc(O)cc2)NC(=O)[C@H](CCC(N)=O)NC(=O)[C@H](CCC(=O)O)NC1=O [disulphide-cyclo-[Ac-Cys-Glu-Gln-Tyr-Cys-NH2 ]] (Ac-CEQYC-NH2; disulfide 1-5) | poor solubility properties | negligible | without any effect | –
2 | 10.1 ± 5 | – | 10 | – | NC(=O)CC[C@@H]1NC(=O)[C@H](CCC(=O)O)NC(=O)[C@@H](N)CSSC[C@@H](C(=O)O)NC(=O)[C@H](Cc2ccc(O)cc2)NC1=O [disulphide-cyclo-[H-Cys-Glu-Gln-Tyr-Cys-OH]] (H-CEQYC-OH; disulfide 1-5) | superior solubility properties; also recorded: freely soluble | – | – | –
3 | – | – | – | – | H-YADKIEDTKL-OH [H-Tyr-Ala-Asp-Lys-Ile-Glu-Asp-Thr-Lys-Leu-OH] | – | – | – | no effect
